{"source": "patent US8530522B2", "about": "“Organic compounds” (Novartis AG, priority 2008, dated 2013)", "key": {"[1]": {"assay": "Storage of Form I samples at elevated temperature and 75% r.h.", "assay_type": "physicochemical"}, "[2]": {"assay": "Water sorption/desorption isotherms (Dynamic Vapor System DVS-1)", "assay_type": "physicochemical", "protocol": "Sorption/desorption isotherms were measured using the Dynamic Vapor System (DVS-1). Measurement was carried out at 25° C. and 40° C."}}, "note": "Where a name gives a salt, the structure may show the parent alone."}
{"smiles": "CCCCCCCCc1ccc(CCC(N)(CO)CO)cc1", "note": "[Form I]", "values": [{"measurement": "solid form after storage", "setting": "[1]; stored 1 month at 60° C. and 75% r.h.", "value": "conversion to the hydrate form"}, {"measurement": "solid form after storage", "setting": "[1]; stored 1 month at 80° C. and 75% r.h.", "value": "conversion to the hydrate form"}]}
{"smiles": "CCCCCCCCc1ccc(CCC(N)(CO)CO)cc1", "note": "[FTY720 HCl, 2-amino-2-[2-(4-octylphenyl)ethyl]propane-1,3-diol hydrochloride salt]", "values": [{"measurement": "relative humidity of first water uptake, water sorption isotherm", "setting": "[2]; isotherm recorded at 25° C.", "value": 90, "unit": "% r.h."}, {"measurement": "relative humidity of first significant water uptake, water sorption isotherm", "setting": "[2]; isotherm recorded at 40° C.", "value": 80, "unit": "% r.h."}]}
